# Source: patent US6846637B1, “Fas peptides and antibodies for modulating apoptosis” (IMED AB, priority 1998, dated 2005)
# Legend:
# [1] = test system: antibodies in human sera of healthy blood donors; experiment: ELISA reactivity of human serum to Fas peptides; type: binding; details: for Reactivity to Fas peptides in ELISA, Human serum: O.D. 490 nm classes; for reactivity with human sera: sera of 30 healthy blood donors, in words
# Source text: The derived amino acid sequence (a.a.1-179) of the Fas protein (Itoh et al., 1991) was used for simultaneous multiple solid-phase peptide synthesis (Houghten et al, 1985) of 20 amino acid long peptides (with a 10-residue overlap).
# [2] = test system: immunoglobulin preparations derived from pooled human serum (Gammagard); experiment: ELISA reactivity of immunoglobulin preparations (Gammagard) to Fas peptides; type: binding; details: O.D. 490 nm classes
# Method: Similar experiments were performed with commercially available immunoglobulin preparations derived from pooled human serum enriched by immunosorbence for immunoglobulin fractions (Gammagard-Baxter, Hyland, Glendale, Calif. USA).
# Jurkat leukemia T cells = experiment: TUNEL assay of apoptosis of Jurkat cells on immobilized anti-Fas peptide antibodies; type: cell-based, human; details: immobilized antibody, 48 h, TUNEL/FACS; control well 18%
# Method: The antibody-concentrations were anti-Fp5 (10 μg/ml), anti-Fp11 (10 μg/ml) and anti-Fpl7 (40 μg/ml). Cells were collected after 48 h incubation, and the fragmented DNA of apoptotic cells was assessed by Apoptosis Detection System, Fluorescein (Promega, Madison, Wis.) based on TdT-mediated dUTP Nick-End Labeling (TUNEL) assay and FACS analysis (CellQuest software, Becton Dickinson) according to manufacturer's instructions. For apoptosis inhibition experiments, Jurkat cell culture medium was supplemented with 200 ng/ml of recombinant Fas-Fc chimera (R&D Systems Europe Ltd, Abingdon, UK). Inhibition of CH-11-mediated apoptosis was performed as described in Fadeel et al., 1997. Data are presented as the mean value of four independent experiments, and the standard error of mean is indicated by the error bars.
# Ability to mediate apoptosis and inhibition of proliferation was determined using antibodies immobilized to plastic surface.
# [3] = target: Fas peptide Fp11 (Glu100-Cys119) (human); experiment: peptide ELISA; legend: +++ > 1.0 O.D.
# [4] = target: Fas peptide Fp17 (Trp160-Val179) (human); experiment: peptide ELISA; legend: + = <0.5 O.D. 490 nm
# [5] = target: Fas peptide Fp5 (Gly40-Val59) (human); experiment: peptide ELISA; legend: + = <0.5 O.D. 490 nm
# [6] = test system: PHA-stimulated T cell blasts; experiment: Proliferation of PHA-stimulated T-cell blasts (Alamar Blue); type: cell-based, human; details: anti-CD3 alone
# Method: PBMC were stimulated with phytohemagglutinin (PHA) ([…]) (Pharmacia Biotech, Sweden) for 48 hours. […] After 48 hours incubation, the proliferation was assessed by Alamar Blue Assay (Biosource International, USA.) and the results were expressed as percent difference in reduction of (fluorometric/colorometric) REDOX indicator between antibody coated and control (without antibodies) wells according to manufacturer's instructions (AMS Biotechnology AB, Sweden).
# Sequence of Fas peptide Fp11 (Glu100-Cys119) (human) (peptide, as listed by the source): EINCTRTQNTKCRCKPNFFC
Substance,"Reactivity to Fas peptides in ELISA, Human serum [1]",reactivity with human sera [1],"Reactivity to Fas peptides in ELISA, Immunoglobulin preparations (Gammagard) [2]",other results
GQFCHKPCPPGERKARDCTV [Fp5],++ (++ = <1.0 O.D.),reactive,+ (+ = <0.5 O.D. 490 nm),apoptosis induced in Jurkat leukemia cells (Jurkat leukemia T cells): 25%
HFSSKCRRCRLCDEGHGLEV [Fp9],–,–,++ (++ = <1.0 O.D.),–
Immunoglobulin preparations (Gammagard) (antibody),–,–,–,O.D. 490 nm [3]: > 1 od; O.D. 490 nm [4]: < 0.5 od; O.D. 490 nm [5]: < 0.5 od
KCRCKPNFFCNSTVCEHCDP [Fp12],++ (++ = <1.0 O.D.),–,++ (++ = <1.0 O.D.),–
KEEGSRSNLGWLCLLLLPIP [Fp16],–,low or no reactivity,+ (+ = <0.5 O.D. 490 nm),–
LIVWVKRKEVQKTCRKHRKE [Fp18],–,–,+++ (+++ > 1.0 O.D.),–
QEGKEYTDKAHFSSKCRRCR [Fp8],–,–,+++ (+++ > 1.0 O.D.),–
WLCLLLLPIPLIVWVKRKEV [Fp17],+++ (+++ > 1.0 O.D.),reactive,+ (+ = <0.5 O.D. 490 nm),"serum titers against peptide ([1]; 30 healthy donors, comparison of Fp5, Fp11, Fp17): lowest mean titers"
"anti-CD3: purified anti-CD3 monoclonal antibody (OKT-3, 10 μg/ml)",–,–,–,reduction of proliferation [6]: 12%
